Measured values: US8853246B2 (Dow AgroSciences LLC, priority 2009, dated 2014)
Like-named read-outs stand apart in the source and are kept apart here.

Columns and labels:
[1] = system: Green Peach Aphid (Myzus Persicae); assay: Insecticidal test for green peach aphid in foliar spray assay (col. MYZUPE); type: in vivo; conditions: for pest or weed control at 200 ppm: Myzus persicae, 72 h, read-out: MYZUPE 200 ppm (Corrected % Control, rating)
Experimental: (§1) The compounds were tested against cotton aphid, green peach aphid, and sweet potato whitefly using procedures described in the following examples and reported in Table 2.
(§2) In each case of Table 2, the rating scale is as follows at 200 ppm.
Insecticidal Test for Green Peach Aphid (Myzus Persicae) in Foliar Spray Assay
Cabbage seedlings grown in 3-inch pots, with 2-3 small (3-5 cm) true leaves, were used as test substrate. The seedlings were infested with 20-50 green peach aphids (wingless adult and nymph) one day prior to chemical application. Four pots with individual seedlings were used for each treatment. Compounds (2 mg) were dissolved in 2 mL of acetone/methanol (1:1) solvent, forming stock solutions of 1000 ppm. The stock solutions were diluted 5× with 0.025% Tween 20 in H2O to obtain a test solution at 200 ppm. A hand-held Devilbiss sprayer was used for spraying a solution to both sides of cabbage leaves until runoff. Reference plants (solvent check) were sprayed with the diluent only. Treated plants were held in a holding room for three days at approximately 25° C. and 40% relative humidity (RH) prior to grading. Evaluation was conducted by counting the number of live aphids per plant under a microscope. Corrected % Control=100*(X−Y)/X • where X=No. of live aphids on solvent check plants • Y=No. of live aphids on treated plants

[2] = system: Sweetpotato Whitefly-Crawler (Bemisia Tabaci); assay: Insecticidal test for sweetpotato whitefly-crawler in foliar spray assay (col. BEMITA); type: in vivo; conditions: for pest or weed control at 200 ppm: Bemisia tabaci, read-out: BEMITA 200 ppm (Corrected % Control, rating)
Experimental: as §1, §2
Insecticidal Test for Sweetpotato Whitefly-Crawler (Bemisia Tabaci) in Foliar Spray Assay
Cotton plants grown in 3-inch pots, with 1 small (3-5 cm) true leaf, were used as test substrate. The plants were placed in a room with whitefly adults. Adults were allowed to deposit eggs for 2-3 days. After a 2-3 day egg-laying period, plants were taken from the adult whitefly room. Adults were blown off leaves using a hand-held Devilbiss sprayer (23 psi). Plants with egg infestation (100-300 eggs per plant) were placed in a holding room for 5-6 days at 82° F. and 50% RH for egg hatch and crawler stage to develop. Four cotton plants were used for each treatment. Compounds (2 mg) were dissolved in 1 mL of acetone solvent, forming stock solutions of 2000 ppm. The stock solutions were diluted 10× with 0.025% Tween 20 in H2O to obtain a test solution at 200 ppm. A hand-held Devilbiss sprayer was used for spraying a solution to both sides of cotton leaf until runoff. Reference plants (solvent check) were sprayed with the diluent only. Treated plants were held in a holding room for 8-9 days at approximately 82° F. and 50% RH prior to grading. Evaluation was conducted by counting the number of live nymphs per plant under a microscope. Insecticidal activity was measured by using Abbott's correction formula and presented in Table 2 (see col. “BEMITA”): Corrected % Control=100*(X−Y)/X • where X=No. of live nymphs on solvent check plants • Y=No. of live nymphs on treated plants Pesticidally Acceptable Acid Addition Salts, Salt Derivatives, Solvates, Ester Derivatives, Polymorphs, Isotopes and Radionuclides

| Compound | pest or weed control at 200 ppm ([1]; green peach aphid) [%] | pest or weed control at 200 ppm ([2]; sweetpotato whitefly-crawler) [%] | pest or weed control at 200 ppm ([1]; Abbott's correction formula) [%] | pest or weed control at 200 ppm ([2]; Abbott's correction formula) [%] | further results |
| --- | --- | --- | --- | --- | --- |
| CSCC(C)C(=O)N(C(=O)OC(C)(C)C)c1sc(-c2cncc(S(C)(=O)=O)c2)nc1C (stereo not shown) [Compound 157] | < 80 | < 80 | – | – | – |
| CCC(CS(C)(=O)=O)C(=O)N(CC)c1sc(-c2cccnc2)nc1Cl (stereo not shown) [Compound 560] | – | – | 80 to 100 | 80 to 100 | – |
| C/C=C/CN(C(=O)C(C)CSC)c1sc(-c2cccnc2)nc1C (stereo not shown) [Compound 466] | – | – | 80 to 100 | < 80 | – |
| Cc1nc(-c2cccnc2)sc1NC(=O)CC1CC1 [Compound 417] | 80 to 100 | 80 to 100 | – | – | – |
| CCN(C(=O)OC(C)(C)C)c1sc(-c2cccnc2)nc1Br [Compound 452] | – | – | 80 to 100 | 80 to 100 | – |
| CN(C)CC(=O)N(C)c1sc(-c2cccnc2)nc1Cl [Compound 432] | – | – | < 80 | < 80 | – |
| Cc1nc(-c2cncc(F)c2)sc1N(C)C(=O)C(C)CS(C)(=O)=NC#N (stereo not shown) [Compound 168] | 80 to 100 | 80 to 100 | – | – | – |
| Cc1nc(-c2cncc(F)c2)sc1N(C)C(=O)CC(C)[S+](C)[O-] (stereo not shown) [Compound 285] | 80 to 100 | 80 to 100 | – | – | – |
| CSCC(C)C(=O)N(CC1CC1(F)F)c1sc(-c2cccnc2)nc1C (stereo not shown) [Compound 467] | – | – | 80 to 100 | < 80 | – |
| CSCC(C)C(=O)N(C(=O)C(C)(C)CSC)c1sc(-c2cccnc2)nc1C (stereo not shown) [Compound 195] | 80 to 100 | 80 to 100 | – | – | – |
| Cc1nc(-c2cccnc2)sc1N(Cc1ccccc1)C(=O)OC(C)(C)C [Compound 15, Benzyl-(4-methyl-2-pyridin-3-yl-thiazol-5-yl)-carbamic acid tert-butyl ester] | 80 to 100 | 80 to 100 | – | – | – |
| CCN(C(=O)c1c(F)cccc1F)c1sc(-c2cccnc2)nc1Cl [Compound 563] | – | – | 80 to 100 | < 80 | – |
| CCN(C(=O)CC[S+](C)[O-])c1sc(-c2cncc(F)c2)nc1C (stereo not shown) [Compound 256] | 80 to 100 | 80 to 100 | – | – | – |
| CCN(C(=O)CCS(C)(=O)=O)c1sc(-c2cccnc2)nc1C [Compound 239] | – | – | – | – | MYZUPE 200 ppm (Corrected % Control, rating) ([1]; green peach aphid): A (80-100); BEMITA 200 ppm (Corrected % Control, rating) ([2]; sweetpotato whitefly-crawler): A (80-100) |
| CSCCC(=O)N(C)c1sc(-c2cccnc2)nc1C(C)C [Compound 59] | < 80 | 80 to 100 | – | – | – |
| CCSCCC(=O)N(CC)c1sc(-c2cncc(F)c2)nc1C [Compound 319] | 80 to 100 | 80 to 100 | – | – | – |
| Cc1nc(-c2cncc(F)c2)sc1N(C)C(=O)C1CCCN(C(=O)CC(F)(F)F)C1 (stereo not shown) [Compound 584] | – | – | < 80 | < 80 | – |
| Cc1nc(-c2cccnc2)sc1N(C)C(=O)OCC(F)(F)F [Compound 486] | – | – | 80 to 100 | < 80 | – |
| CCCN(C(=O)OC(C)(C)C)c1sc(-c2cccnc2)nc1C [Compound 284] | 80 to 100 | 80 to 100 | – | – | – |
| CSC(C)CC(=O)N(C)c1sc(-c2cccnc2)nc1Cl (stereo not shown) [Compound 248] | 80 to 100 | 80 to 100 | – | – | – |
| CC(=O)N1CCCC(C(=O)N(C)c2sc(-c3cccnc3)nc2C)C1 (stereo not shown) [Compound 412] | 80 to 100 | 80 to 100 | – | – | – |
| Cc1nc(-c2cccnc2)sc1NC(=O)CN(C)C(=O)C(C)n1cccn1 (stereo not shown) [Compound 429] | – | – | 80 to 100 | < 80 | – |
| CCN(C(=O)c1snnc1C)c1sc(-c2cccnc2)nc1Cl [Compound 556] | – | – | 80 to 100 | < 80 | – |
